{"source": "the supplement of paper PMC10307832", "experiment_in_all_cases": "relative viability (nuclei count vs DMSO), 5 days (fraction); higher = more cells survive", "key": {"201T": {"test_system": "201T", "in_short": "(§1)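 Relative viability equals treated-well nuclei counts divided by vehicle-well nuclei counts. Counts came from 4× images of lung cancer cell lines grown in 1536-well plates for 5 days after pin-tool dosing on the day after seeding. Dosing used one drug alone or a fixed anchor-drug dose plus five library-drug doses (not always all listed) in √10 steps, and values are medians of duplicate plates.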"}, "BEN": {"test_system": "BEN", "in_short": "as §1"}, "COR-L 105": {"test_system": "COR-L 105", "in_short": "as §1"}, "H3255": {"test_system": "H3255", "in_short": "as §1"}, "HARA": {"test_system": "HARA", "in_short": "as §1"}, "HCC-15": {"test_system": "HCC-15", "in_short": "as §1"}, "HCC-827": {"test_system": "HCC-827", "in_short": "as §1"}, "LC-2-ad": {"test_system": "LC-2-ad", "in_short": "as §1"}, "LCLC-103H": {"test_system": "LCLC-103H", "in_short": "as §1"}, "LK-2": {"test_system": "LK-2", "in_short": "as §1"}, "LU99A": {"test_system": "LU99A", "in_short": "as §1"}, "LXF-289": {"test_system": "LXF-289", "in_short": "as §1"}, "NCI-H1437": {"test_system": "NCI-H1437", "in_short": "as §1"}, "NCI-H1651": {"test_system": "NCI-H1651", "in_short": "as §1"}, "NCI-H1792": {"test_system": "NCI-H1792", "in_short": "as §1"}, "NCI-H2085": {"test_system": "NCI-H2085", "in_short": "as §1"}, "NCI-H23": {"test_system": "NCI-H23", "in_short": "as §1"}, "NCI-H2405": {"test_system": "NCI-H2405", "in_short": "as §1"}, "NCI-H322M": {"test_system": "NCI-H322M", "in_short": "as §1"}, "RERF-LC-KJ": {"test_system": "RERF-LC-KJ", "in_short": "as §1"}, "UMC-11": {"test_system": "UMC-11", "in_short": "as §1"}}, "data": [{"smiles": "O=c1[nH]c2ccccc2n1C1CCN(CCCC(c2ccc(F)cc2)c2ccc(F)cc2)CC1", "note": "[Pimozide] + Nc1ncn([C@H]2C[C@H](O)[C@@H](CO)O2)c(=O)n1 [Decitabine] (partner 2 µM)", "values": [{"measurement": "relative viability", "setting": "201T; first compound 0.08 µM", "result": 0.827}, {"measurement": "relative viability", "setting": "201T; first compound 0.253 µM", "result": 0.846}, {"measurement": "relative viability", "setting": "201T; first compound 0.8 µM", "result": 0.829}, {"measurement": "relative viability", "setting": "201T; first compound 2.53 µM", "result": 0.844}, {"measurement": "relative viability", "setting": "201T; first compound 8 µM", "result": 0.711}, {"measurement": "relative viability", "setting": "BEN; first compound 0.08 µM", "result": 0.805}, {"measurement": "relative viability", "setting": "BEN; first compound 0.253 µM", "result": 0.71}, {"measurement": "relative viability", "setting": "BEN; first compound 0.8 µM", "result": 0.757}, {"measurement": "relative viability", "setting": "BEN; first compound 2.53 µM", "result": 0.62}, {"measurement": "relative viability", "setting": "BEN; first compound 8 µM", "result": 0.767}, {"measurement": "relative viability", "setting": "COR-L 105; first compound 0.08 µM", "result": 0.49}, {"measurement": "relative viability", "setting": "COR-L 105; first compound 0.253 µM", "result": 0.702}, {"measurement": "relative viability", "setting": "COR-L 105; first compound 0.8 µM", "result": 0.623}, {"measurement": "relative viability", "setting": "COR-L 105; first compound 2.53 µM", "result": 0.659}, {"measurement": "relative viability", "setting": "COR-L 105; first compound 8 µM", "result": 0.701}, {"measurement": "relative viability", "setting": "H3255; first compound 0.253 µM", "result": 0.538}, {"measurement": "relative viability", "setting": "H3255; first compound 0.8 µM", "result": 0.496}, {"measurement": "relative viability", "setting": "H3255; first compound 2.53 µM", "result": 0.626}, {"measurement": "relative viability", "setting": "H3255; first compound 8 µM", "result": 0.734}, {"measurement": "relative viability", "setting": "HARA; first compound 0.08 µM", "result": 0.535}, {"measurement": "relative viability", "setting": "HARA; first compound 0.253 µM", "result": 0.586}, {"measurement": "relative viability", "setting": "HARA; first compound 0.8 µM", "result": 0.476}, {"measurement": "relative viability", "setting": "HARA; first compound 2.53 µM", "result": 0.528}, {"measurement": "relative viability", "setting": "HARA; first compound 8 µM", "result": 0.617}, {"measurement": "relative viability", "setting": "HCC-15; first compound 0.08 µM", "result": 0.658}, {"measurement": "relative viability", "setting": "HCC-15; first compound 0.253 µM", "result": 0.629}, {"measurement": "relative viability", "setting": "HCC-15; first compound 0.8 µM", "result": 0.452}, {"measurement": "relative viability", "setting": "HCC-15; first compound 2.53 µM", "result": 0.551}, {"measurement": "relative viability", "setting": "HCC-15; first compound 8 µM", "result": 0.66}, {"measurement": "relative viability", "setting": "HCC-827; first compound 0.253 µM", "result": 0.284}, {"measurement": "relative viability", "setting": "HCC-827; first compound 0.8 µM", "result": 0.348}, {"measurement": "relative viability", "setting": "HCC-827; first compound 2.53 µM", "result": 0.334}, {"measurement": "relative viability", "setting": "HCC-827; first compound 8 µM", "result": 0.32}, {"measurement": "relative viability", "setting": "LC-2-ad; first compound 0.08 µM", "result": 0.776}, {"measurement": "relative viability", "setting": "LC-2-ad; first compound 0.253 µM", "result": 0.697}, {"measurement": "relative viability", "setting": "LC-2-ad; first compound 0.8 µM", "result": 0.854}, {"measurement": "relative viability", "setting": "LC-2-ad; first compound 2.53 µM", "result": 0.868}, {"measurement": "relative viability", "setting": "LC-2-ad; first compound 8 µM", "result": 0.837}, {"measurement": "relative viability", "setting": "LCLC-103H; first compound 0.08 µM", "result": 0.765}, {"measurement": "relative viability", "setting": "LCLC-103H; first compound 0.253 µM", "result": 0.712}, {"measurement": "relative viability", "setting": "LCLC-103H; first compound 0.8 µM", "result": 0.674}, {"measurement": "relative viability", "setting": "LCLC-103H; first compound 2.53 µM", "result": 0.691}, {"measurement": "relative viability", "setting": "LCLC-103H; first compound 8 µM", "result": 0.707}, {"measurement": "relative viability", "setting": "LK-2; first compound 0.08 µM", "result": 0.25}, {"measurement": "relative viability", "setting": "LK-2; first compound 0.253 µM", "result": 0.289}, {"measurement": "relative viability", "setting": "LK-2; first compound 0.8 µM", "result": 0.28}, {"measurement": "relative viability", "setting": "LK-2; first compound 2.53 µM", "result": 0.296}, {"measurement": "relative viability", "setting": "LK-2; first compound 8 µM", "result": 0.33}, {"measurement": "relative viability", "setting": "LU99A; first compound 0.08 µM", "result": 0.979}, {"measurement": "relative viability", "setting": "LU99A; first compound 0.8 µM", "result": 0.97}, {"measurement": "relative viability", "setting": "LU99A; first compound 2.53 µM", "result": 0.829}, {"measurement": "relative viability", "setting": "LU99A; first compound 8 µM", "result": 0.847}, {"measurement": "relative viability", "setting": "LXF-289; first compound 0.08 µM", "result": 0.378}, {"measurement": "relative viability", "setting": "LXF-289; first compound 0.253 µM", "result": 0.4}, {"measurement": "relative viability", "setting": "LXF-289; first compound 0.8 µM", "result": 0.324}, {"measurement": "relative viability", "setting": "LXF-289; first compound 2.53 µM", "result": 0.357}, {"measurement": "relative viability", "setting": "LXF-289; first compound 8 µM", "result": 0.39}, {"measurement": "relative viability", "setting": "NCI-H1437; first compound 0.08 µM", "result": 0.632}, {"measurement": "relative viability", "setting": "NCI-H1437; first compound 0.253 µM", "result": 0.547}, {"measurement": "relative viability", "setting": "NCI-H1437; first compound 0.8 µM", "result": 0.555}, {"measurement": "relative viability", "setting": "NCI-H1437; first compound 2.53 µM", "result": 0.465}, {"measurement": "relative viability", "setting": "NCI-H1437; first compound 8 µM", "result": 0.549}, {"measurement": "relative viability", "setting": "NCI-H1651; first compound 0.08 µM", "result": 0.597}, {"measurement": "relative viability", "setting": "NCI-H1651; first compound 0.253 µM", "result": 0.507}, {"measurement": "relative viability", "setting": "NCI-H1651; first compound 0.8 µM", "result": 0.719}, {"measurement": "relative viability", "setting": "NCI-H1651; first compound 2.53 µM", "result": 0.588}, {"measurement": "relative viability", "setting": "NCI-H1651; first compound 8 µM", "result": 0.611}, {"measurement": "relative viability", "setting": "NCI-H1792; first compound 0.08 µM", "result": 0.59}, {"measurement": "relative viability", "setting": "NCI-H1792; first compound 0.253 µM", "result": 0.53}, {"measurement": "relative viability", "setting": "NCI-H1792; first compound 0.8 µM", "result": 0.33}, {"measurement": "relative viability", "setting": "NCI-H1792; first compound 2.53 µM", "result": 0.534}, {"measurement": "relative viability", "setting": "NCI-H1792; first compound 8 µM", "result": 0.547}, {"measurement": "relative viability", "setting": "NCI-H2085; first compound 0.08 µM", "result": 0.545}, {"measurement": "relative viability", "setting": "NCI-H2085; first compound 0.253 µM", "result": 0.544}, {"measurement": "relative viability", "setting": "NCI-H2085; first compound 0.8 µM", "result": 0.573}, {"measurement": "relative viability", "setting": "NCI-H2085; first compound 2.53 µM", "result": 0.551}, {"measurement": "relative viability", "setting": "NCI-H2085; first compound 8 µM", "result": 0.585}, {"measurement": "relative viability", "setting": "NCI-H23; first compound 0.08 µM", "result": 0.304}, {"measurement": "relative viability", "setting": "NCI-H23; first compound 0.253 µM", "result": 0.301}, {"measurement": "relative viability", "setting": "NCI-H23; first compound 0.8 µM", "result": 0.294}, {"measurement": "relative viability", "setting": "NCI-H23; first compound 2.53 µM", "result": 0.333}, {"measurement": "relative viability", "setting": "NCI-H23; first compound 8 µM", "result": 0.325}, {"measurement": "relative viability", "setting": "NCI-H2405; first compound 0.08 µM", "result": 0.71}, {"measurement": "relative viability", "setting": "NCI-H2405; first compound 0.253 µM", "result": 0.686}, {"measurement": "relative viability", "setting": "NCI-H2405; first compound 0.8 µM", "result": 0.695}, {"measurement": "relative viability", "setting": "NCI-H2405; first compound 2.53 µM", "result": 0.69}, {"measurement": "relative viability", "setting": "NCI-H2405; first compound 8 µM", "result": 0.669}, {"measurement": "relative viability", "setting": "NCI-H322M; first compound 0.08 µM", "result": 0.581}, {"measurement": "relative viability", "setting": "NCI-H322M; first compound 0.253 µM", "result": 0.705}, {"measurement": "relative viability", "setting": "NCI-H322M; first compound 0.8 µM", "result": 0.719}, {"measurement": "relative viability", "setting": "NCI-H322M; first compound 2.53 µM", "result": 0.772}, {"measurement": "relative viability", "setting": "NCI-H322M; first compound 8 µM", "result": 0.632}, {"measurement": "relative viability", "setting": "RERF-LC-KJ; first compound 0.08 µM", "result": 0.674}, {"measurement": "relative viability", "setting": "RERF-LC-KJ; first compound 0.253 µM", "result": 0.562}, {"measurement": "relative viability", "setting": "RERF-LC-KJ; first compound 0.8 µM", "result": 0.63}, {"measurement": "relative viability", "setting": "RERF-LC-KJ; first compound 2.53 µM", "result": 0.401}, {"measurement": "relative viability", "setting": "RERF-LC-KJ; first compound 8 µM", "result": 0.544}, {"measurement": "relative viability", "setting": "UMC-11; first compound 0.08 µM", "result": 0.638}, {"measurement": "relative viability", "setting": "UMC-11; first compound 0.253 µM", "result": 0.579}, {"measurement": "relative viability", "setting": "UMC-11; first compound 0.8 µM", "result": 0.53}, {"measurement": "relative viability", "setting": "UMC-11; first compound 2.53 µM", "result": 0.593}, {"measurement": "relative viability", "setting": "UMC-11; first compound 8 µM", "result": 1.03}]}]}
